Reference: publication PMC5218480 (PLoS ONE, 2017)

System: MV-4-11 cells
Test: Gene expression microarray analysis (Affymetrix PrimeView) and GSEA
Assay type: cell-based, human
Design: RFU PODN (11730768_x_at) / Fold change /veh PODN (11730768_x_at) / RFU LINC00158 (11744669_a_at) / Fold change /veh LINC00158 (11744669_a_at) / RFU DUSP10 (11751237_a_at) / Fold change /veh DUSP10 (11751237_a_at) / RFU ID3 (11757404_x_at) / Fold change /veh ID3 (11757404_x_at) / RFU PLEKHG5 (11737974_s_at) / Fold change /veh PLEKHG5 (11737974_s_at) / RFU LRRC4B (11730491_at) / Fold change /veh LRRC4B (11730491_at) / RFU GIMAP4 (11747438_a_at) / Fold change /veh GIMAP4 (11747438_a_at) / RFU KRT8 (11758183_x_at) / Fold change /veh KRT8 (11758183_x_at) / RFU CNN1 (11734310_a_at) / Fold change /veh CNN1 (11734310_a_at) / RFU VPS37D (11726825_at) / Fold change /veh VPS37D (11726825_at) / RFU C10orf10 (11716522_x_at) / Fold change /veh C10orf10 (11716522_x_at) / RFU KIR2DL2 /// KIR2DL4 /// KIR2DL5A /// KIR2DL5B /// KIR2DS1 /// KIR2DS2 /// KIR2DS3 /// KIR2DS4 /// KIR3DL3 /// KIR3DL3 /// KIR3DS1 (11738374_at) / Fold change /veh KIR2DL2 /// KIR2DL4 /// KIR2DL5A /// KIR2DL5B /// KIR2DS1 /// KIR2DS2 /// KIR2DS3 /// KIR2DS4 /// KIR3DL3 /// KIR3DL3 /// KIR3DS1 (11738374_at) / RFU C1QL1 (11718748_at) / Fold change /veh C1QL1 (11718748_at) / RFU TMPRSS4 (11747572_a_at) / Fold change /veh TMPRSS4 (11747572_a_at) / RFU HAMP (11756126_x_at) / Fold change /veh HAMP (11756126_x_at) / RFU RNFT2 (11725882_a_at) / Fold change /veh RNFT2 (11725882_a_at) / RFU NR4A2 (11747474_a_at) / Fold change /veh NR4A2 (11747474_a_at) / RFU ABCC12 (11746883_a_at) / Fold change /veh ABCC12 (11746883_a_at) / RFU TMEM136 (11760407_x_at) / Fold change /veh TMEM136 (11760407_x_at) / RFU CLDN22 /// WWC2 (11732394_at) / Fold change /veh CLDN22 /// WWC2 (11732394_at) / RFU HLA-DPB1 (11760878_x_at) / Fold change /veh HLA-DPB1 (11760878_x_at) / RFU SPINT1 (11716480_a_at) / Fold change /veh SPINT1 (11716480_a_at) / RFU GAP43 (11754022_s_at) / Fold change /veh GAP43 (11754022_s_at) / RFU A4GNT (11735810_at) / Fold change /veh A4GNT (11735810_at) / RFU PRB3 (11715151_x_at) / Fold change /veh PRB3 (11715151_x_at) / RFU TUBB4B (11761932_at) / Fold change /veh TUBB4B (11761932_at) / RFU CAPN14 (11732068_a_at) / Fold change /veh CAPN14 (11732068_a_at) / RFU TMCC2 (11721928_a_at) / Fold change /veh TMCC2 (11721928_a_at) / RFU IRGQ (11745062_a_at) / Fold change /veh IRGQ (11745062_a_at) / RFU FAM174B (11720279_a_at) / Fold change /veh FAM174B (11720279_a_at) / RFU TMPRSS4 (11748680_a_at) / Fold change /veh TMPRSS4 (11748680_a_at) / RFU FAM212B (11763350_a_at) / Fold change /veh FAM212B (11763350_a_at) / RFU PLEKHG5 (11743358_a_at) / Fold change /veh PLEKHG5 (11743358_a_at) / RFU ZSCAN30 (11745921_a_at) / Fold change /veh ZSCAN30 (11745921_a_at) / RFU CMKLR1 (11741424_a_at) / Fold change /veh CMKLR1 (11741424_a_at) / RFU LOC101060620 /// MAPK8IP1 (11723275_at) / Fold change /veh LOC101060620 /// MAPK8IP1 (11723275_at) / RFU SPTSSB (11747773_x_at) / Fold change /veh SPTSSB (11747773_x_at) / RFU PRSS12 (11739890_at) / Fold change /veh PRSS12 (11739890_at) / RFU BIN1 (11741810_x_at) / Fold change /veh BIN1 (11741810_x_at) / RFU WNT11 (11732464_a_at) / Fold change /veh WNT11 (11732464_a_at) / RFU C10orf10 (11716521_a_at) / Fold change /veh C10orf10 (11716521_a_at) / RFU C5orf56 (11738089_at) / Fold change /veh C5orf56 (11738089_at) / RFU CYB561 (11721691_x_at) / Fold change /veh CYB561 (11721691_x_at) / RFU ANKRD19P (11752326_a_at) / Fold change /veh ANKRD19P (11752326_a_at) / RFU OR2T12 /// OR2T33 /// OR2T8 (11738714_s_at) / Fold change /veh OR2T12 /// OR2T33 /// OR2T8 (11738714_s_at) / RFU VCAN (11748164_a_at) / Fold change /veh VCAN (11748164_a_at) / RFU JSRP1 (11732532_at) / Fold change /veh JSRP1 (11732532_at) / RFU KRTAP10-11 (11738290_x_at) / Fold change /veh KRTAP10-11 (11738290_x_at) / RFU MYO3A (11730013_a_at) / Fold change /veh MYO3A (11730013_a_at) / RFU EBF3 (11725865_a_at) / Fold change /veh EBF3 (11725865_a_at) / RFU CAMK2N1 (11719241_x_at) / Fold change /veh CAMK2N1 (11719241_x_at) / RFU C5orf56 (11738088_a_at) / Fold change /veh C5orf56 (11738088_a_at) / RFU OLFML3 (11715873_a_at) / Fold change /veh OLFML3 (11715873_a_at) / RFU LOC100653217 /// NTM (11731650_a_at) / Fold change /veh LOC100653217 /// NTM (11731650_a_at) / RFU MAPK11 (11762145_a_at) / Fold change /veh MAPK11 (11762145_a_at) / RFU FIZ1 (11724087_x_at) / Fold change /veh FIZ1 (11724087_x_at) / RFU OASL (11726364_x_at) / Fold change /veh OASL (11726364_x_at) / RFU SOX15 (11748057_x_at) / Fold change /veh SOX15 (11748057_x_at) / RFU CD79A (11719716_a_at) / Fold change /veh CD79A (11719716_a_at) / RFU HIST1H1D (11736915_at) / Fold change /veh HIST1H1D (11736915_at) / RFU CASKIN2 (11723855_a_at) / Fold change /veh CASKIN2 (11723855_a_at) / RFU LOC730098 (11760151_x_at) / Fold change /veh LOC730098 (11760151_x_at) / RFU OR4N2 (11742367_at) / Fold change /veh OR4N2 (11742367_at) / RFU PRRT2 (11749266_a_at) / Fold change /veh PRRT2 (11749266_a_at) / RFU SNX32 (11753110_a_at) / Fold change /veh SNX32 (11753110_a_at) / RFU CDHR5 (11726645_a_at) / Fold change /veh CDHR5 (11726645_a_at) / RFU RCAN1 (11760418_a_at) / Fold change /veh RCAN1 (11760418_a_at) / RFU FAM167A (11723789_a_at) / Fold change /veh FAM167A (11723789_a_at) / RFU FAM26E (11764081_at) / Fold change /veh FAM26E (11764081_at) / RFU ISYNA1 (11749810_s_at) / Fold change /veh ISYNA1 (11749810_s_at) / RFU ACY1 (11761880_at) / Fold change /veh ACY1 (11761880_at) / RFU 11764098_at / Fold change /veh 11764098_at / RFU SAMD14 (11745864_x_at) / Fold change /veh SAMD14 (11745864_x_at) / RFU NPB (11741838_a_at) / Fold change /veh NPB (11741838_a_at) / RFU TMPRSS6 (11731388_a_at) / Fold change /veh TMPRSS6 (11731388_a_at) / RFU KRTAP10-2 (11738614_at) / Fold change /veh KRTAP10-2 (11738614_at) / RFU ARHGAP8 /// PRR5-ARHGAP8 (11727945_x_at) / Fold change /veh ARHGAP8 /// PRR5-ARHGAP8 (11727945_x_at) / RFU KRTAP5-7 /// NADSYN1 (11734609_at) / Fold change /veh KRTAP5-7 /// NADSYN1 (11734609_at) / RFU RASL12 (11751679_a_at) / Fold change /veh RASL12 (11751679_a_at) / RFU CDKN2B (11736163_a_at) / Fold change /veh CDKN2B (11736163_a_at) / RFU PRF1 (11729649_at) / Fold change /veh PRF1 (11729649_at) / RFU, ZNF638 /// ZNF638-IT1 / Fold change vs veh, ZNF638 /// ZNF638-IT1 / RFU, PANK3 / Fold change vs veh, PANK3 / RFU, SH3YL1 / Fold change vs veh, SH3YL1 / RFU, ZEB2 / Fold change vs veh, ZEB2 / RFU, NRIP1 / Fold change vs veh, NRIP1 / RFU, PTTG1IP / Fold change vs veh, PTTG1IP / RFU, CAPN2 / Fold change vs veh, CAPN2 / RFU, MED14 / Fold change vs veh, MED14 / RFU, SNORA58 / Fold change vs veh, SNORA58 / RFU, C1orf63 / Fold change vs veh, C1orf63 / RFU, LRRFIP1 / Fold change vs veh, LRRFIP1 / RFU, NDUFAF7 / Fold change vs veh, NDUFAF7 / RFU, SLC12A2 / Fold change vs veh, SLC12A2 / RFU, IBTK / Fold change vs veh, IBTK / RFU, ESF1 / Fold change vs veh, ESF1 / Fold change vs veh, TMEM50B / RFU, TAOK1 / Fold change vs veh, TAOK1 / RFU, ACBD3 / Fold change vs veh, ACBD3 / RFU, TMA16 / Fold change vs veh, TMA16 / RFU, RWDD3 / Fold change vs veh, RWDD3 / RFU, BCAT1 / Fold change vs veh, BCAT1 / RFU, EDEM3 / Fold change vs veh, EDEM3 / RFU, TMEM33 / Fold change vs veh, TMEM33 / RFU, WDR75 / Fold change vs veh, WDR75 / RFU, AHCTF1 / Fold change vs veh, AHCTF1 / RFU, TFRC / Fold change vs veh, TFRC / RFU, ZDHHC17 / Fold change vs veh, ZDHHC17 / RFU, NOM1 / Fold change vs veh, NOM1 / RFU, ARL8B / Fold change vs veh, ARL8B / RFU, ZBTB11 / Fold change vs veh, ZBTB11 / RFU, TAMM41 / Fold change vs veh, TAMM41 / RFU, KIAA1704 /// LOC100996395 / Fold change vs veh, KIAA1704 /// LOC100996395 / RFU, ING1 / Fold change vs veh, ING1 / RFU, TRMT61B / Fold change vs veh, TRMT61B / RFU, FUBP3 / Fold change vs veh, FUBP3 / RFU, TP53 / Fold change vs veh, TP53 / RFU, TNKS2 / Fold change vs veh, TNKS2 / RFU, ZFP14 / Fold change vs veh, ZFP14 / RFU, ACTR2 / Fold change vs veh, ACTR2 / RFU, PPP3R1 / Fold change vs veh, PPP3R1 / RFU, PIK3R1 / Fold change vs veh, PIK3R1 / RFU, HNRNPA1 / Fold change vs veh, HNRNPA1 / RFU, RNF170 / Fold change vs veh, RNF170 / RFU, ZNF28 / Fold change vs veh, ZNF28 / RFU, RNGTT / Fold change vs veh, RNGTT / RFU, OGT / Fold change vs veh, OGT / RFU, BRD1 / Fold change vs veh, BRD1 / RFU, MARS / Fold change vs veh, MARS / RFU, ZNF655 / Fold change vs veh, ZNF655 / RFU, FAHD1 / Fold change vs veh, FAHD1 / RFU, BDP1 / Fold change vs veh, BDP1 / RFU, LRRCC1 / Fold change vs veh, LRRCC1 / RFU, ARID1A / Fold change vs veh, ARID1A / RFU, ZNF146 / Fold change vs veh, ZNF146 / RFU, ZNF330 / Fold change vs veh, ZNF330 / RFU, GPN3 / Fold change vs veh, GPN3 / RFU, C9orf123 / Fold change vs veh, C9orf123 / RFU, N4BP2L2 / Fold change vs veh, N4BP2L2 / RFU, ARFIP1 / Fold change vs veh, ARFIP1 / RFU, FAM179B / Fold change vs veh, FAM179B / RFU, BCL10 / Fold change vs veh, BCL10 / RFU, UHRF1BP1L / Fold change vs veh, UHRF1BP1L / RFU, BET1 / Fold change vs veh, BET1 / RFU, CNOT2 / Fold change vs veh, CNOT2 / RFU, ZNF268 / Fold change vs veh, ZNF268 / Fold change vs veh, ZNF507 / RFU, DGCR2 / Fold change vs veh, DGCR2 / RFU, WDSUB1 / Fold change vs veh, WDSUB1 / Fold change vs veh, HSP90B1 /// MIR3652 / RFU, ADSS / Fold change vs veh, ADSS / RFU, GK / Fold change vs veh, GK / RFU, ZNF148 / Fold change vs veh, ZNF148 / RFU, TAF9 / Fold change vs veh, TAF9 / RFU, SLC1A5 / Fold change vs veh, SLC1A5 / RFU, SLMO2 / Fold change vs veh, SLMO2 / RFU, ABCC4 / Fold change vs veh, ABCC4 / RFU, LOC101060439 /// RAP1B / Fold change vs veh, LOC101060439 /// RAP1B / RFU, RFX7 / Fold change vs veh, RFX7 / RFU, GTPBP10 / Fold change vs veh, GTPBP10 / RFU, CNEP1R1 / Fold change vs veh, CNEP1R1 / RFU, BIVM-ERCC5 /// ERCC5 / Fold change vs veh, BIVM-ERCC5 /// ERCC5 / RFU, ILF3 / Fold change vs veh, ILF3 / RFU 11762660_at / Fold change /veh 11762660_at / RFU VCAN (11757783_s_at) / Fold change /veh VCAN (11757783_s_at) / RFU DDX43 (11728927_at) / Fold change /veh DDX43 (11728927_at) / RFU KRT8 (11758188_x_at) / Fold change /veh KRT8 (11758188_x_at) / RFU NKD1 (11759106_at) / Fold change /veh NKD1 (11759106_at) / RFU SRD5A1 (11742802_a_at) / Fold change /veh SRD5A1 (11742802_a_at) / RFU TPSAB1 /// TPSB2 (11721975_s_at) / Fold change /veh TPSAB1 /// TPSB2 (11721975_s_at) / RFU GSTM3 (11746129_a_at) / Fold change /veh GSTM3 (11746129_a_at) / RFU IL23R (11737362_x_at) / Fold change /veh IL23R (11737362_x_at) / RFU TMEM51 (11727254_a_at) / Fold change /veh TMEM51 (11727254_a_at) / RFU PIWIL2 (11732686_x_at) / Fold change /veh PIWIL2 (11732686_x_at) / RFU ORM1 (11744905_x_at) / Fold change /veh ORM1 (11744905_x_at) / RFU CCDC152 (11743942_at) / Fold change /veh CCDC152 (11743942_at) / RFU ECM1 (11717891_a_at) / Fold change /veh ECM1 (11717891_a_at) / RFU IL23R (11748794_a_at) / Fold change /veh IL23R (11748794_a_at) / RFU TNFAIP8L3 (11732012_x_at) / Fold change /veh TNFAIP8L3 (11732012_x_at) / RFU MBOAT4 (11741988_at) / Fold change /veh MBOAT4 (11741988_at) / RFU 11764193_at / Fold change /veh 11764193_at / RFU TMEM53 (11763286_at) / Fold change /veh TMEM53 (11763286_at) / RFU MAGEB2 (11727129_at) / Fold change /veh MAGEB2 (11727129_at) / RFU TMEM200A (11744735_a_at) / Fold change /veh TMEM200A (11744735_a_at) / RFU CCDC152 (11751479_a_at) / Fold change /veh CCDC152 (11751479_a_at) / RFU FAM211A (11726209_a_at) / Fold change /veh FAM211A (11726209_a_at) / RFU RGS16 (11746705_a_at) / Fold change /veh RGS16 (11746705_a_at) / RFU VCAN (11755009_s_at) / Fold change /veh VCAN (11755009_s_at) / RFU RHOB (11743442_s_at) / Fold change /veh RHOB (11743442_s_at) / RFU RGS16 (11720943_a_at) / Fold change /veh RGS16 (11720943_a_at) / RFU RGS16 (11720944_at) / Fold change /veh RGS16 (11720944_at) / RFU, VPS4B / Fold change vs veh, VPS4B / RFU, CREB1 / Fold change vs veh, CREB1 / RFU, DNAJC13 / Fold change vs veh, DNAJC13 / RFU, GNAQ / Fold change vs veh, GNAQ / RFU, CDK5R1 / Fold change vs veh, CDK5R1 / RFU, ZRANB3 / Fold change vs veh, ZRANB3 / RFU, CUL4A / Fold change vs veh, CUL4A / RFU, CCNY / Fold change vs veh, CCNY / RFU, UFL1 / Fold change vs veh, UFL1 / RFU, COG3 / Fold change vs veh, COG3 / RFU, DIAPH2 / Fold change vs veh, DIAPH2 / RFU, SKA2 / Fold change vs veh, SKA2 / RFU, AFF3 / Fold change vs veh, AFF3 / RFU, LMF1 / Fold change vs veh, LMF1 / RFU, IPO11 / Fold change vs veh, IPO11 / RFU, DFFB / Fold change vs veh, DFFB / RFU, FOXP1 / Fold change vs veh, FOXP1 / RFU, CARD8 / Fold change vs veh, CARD8 / RFU, STRN3 / Fold change vs veh, STRN3 / RFU, ADK / Fold change vs veh, ADK / RFU, RASSF2 / Fold change vs veh, RASSF2 / RFU, WIPF1 / Fold change vs veh, WIPF1 / RFU, LARP1B / Fold change vs veh, LARP1B / RFU, RASA1 / Fold change vs veh, RASA1 / RFU, RB1 / Fold change vs veh, RB1 / RFU, PPFIA1 / Fold change vs veh, PPFIA1 / RFU, MAT2A / Fold change vs veh, MAT2A / RFU, CCT5 / Fold change vs veh, CCT5 / RFU, WDR92 / Fold change vs veh, WDR92 / RFU, CUX1 / Fold change vs veh, CUX1 / RFU, TTC7A / Fold change vs veh, TTC7A / RFU, TMEM135 / Fold change vs veh, TMEM135 / RFU, DEPTOR / Fold change vs veh, DEPTOR / RFU, CPM / Fold change vs veh, CPM / RFU, DNAJB6 / Fold change vs veh, DNAJB6 / RFU, CACNA2D3 / Fold change vs veh, CACNA2D3 / RFU, DTX4 / Fold change vs veh, DTX4 / RFU, TFCP2 / Fold change vs veh, TFCP2 / RFU, GMCL1 /// GMCL1P1 / Fold change vs veh, GMCL1 /// GMCL1P1 / RFU, AEBP2 / Fold change vs veh, AEBP2 / RFU, SNHG1 /// SNORD22 /// SNORD25 /// SNORD26 /// SNORD27 /// SNORD28 /// SNORD29 /// SNORD31 / Fold change vs veh, SNHG1 /// SNORD22 /// SNORD25 /// SNORD26 /// SNORD27 /// SNORD28 /// SNORD29 /// SNORD31 / Fold change (Aza/veh), C12orf56 (ProbeSet 11735607_a_at) / Fold change (ACY-1035/veh), C12orf56 (ProbeSet 11735607_a_at) / Fold change (Aza/veh), FGFR1OP (ProbeSet 11751329_s_at) / Fold change (ACY-1035/veh), FGFR1OP (ProbeSet 11751329_s_at) / Fold change (Aza/veh), VPS36 (ProbeSet 11739960_a_at) / Fold change (ACY-1035/veh), VPS36 (ProbeSet 11739960_a_at) / RFU SYPL1 (11715823_x_at) / Fold change /veh SYPL1 (11715823_x_at) / RFU IGFBP7 (11715501_s_at) / Fold change /veh IGFBP7 (11715501_s_at) / RFU REEP3 (11722064_at) / Fold change /veh REEP3 (11722064_at) / RFU IGLL1 (11728026_x_at) / Fold change /veh IGLL1 (11728026_x_at): dose or concentration left out as unconfirmed
Conditions: ProbeSet 11749551_a_at; LIST B

Compound: Nc1ncn([C@@H]2O[C@H](CO)[C@@H](O)[C@H]2O)c(=O)n1 [azacitidine]
- RFU, RNGTT: 56.67 RFU
